Data reported in BindingDB's records for doi:10.1021/acs.jmedchem.0c00689 (Virginia Commonwealth University, 2020).
pIC50: −log10 of the molar value. Where a SMILES comes first, the peptide text is derived from it. The star is where a group is joined. X1 = O=C(Cc1ccc(O)cc1)*

Tests used:
[1] = Inhibition of recombinant human full-length His6-tagged NTMT1 (1 to 222 residues) expressed in Escherichia coli BL21-CodonPlus(DE3)-RIL competent cells assessed as Me2RCC1 level at 10 uM pre-incubated for 10 mins before RCC1 substrate addition and measured after 15 mins by Western blot analysis relative to control
[2] = Inhibition of recombinant human full-length His6-tagged NTMT1 (1 to 222 residues) expressed in Escherichia coli BL21-CodonPlus(DE3)-RIL competent cells assessed as Me2RCC1 level at 10 uM pre-incubated for 0 mins before RCC1 substrate addition and measured after 15 mins by Western blot analysis relative to control
[3] = Inhibition of recombinant human full-length His6-tagged NTMT1 (1 to 222 residues) expressed in Escherichia coli BL21-CodonPlus(DE3)-RIL competent cells assessed as Me3RCC1 level at 50 uM pre-incubated for 10 mins before RCC1 substrate addition and measured after 15 mins by Western blot analysis relative to control
[4] = Inhibition of recombinant human full-length His6-tagged NTMT1 (1 to 222 residues) expressed in Escherichia coli BL21-CodonPlus(DE3)-RIL competent cells assessed as Me3RCC1 level at 2 uM pre-incubated for 10 mins before RCC1 substrate addition and measured after 15 mins by Western blot analysis relative to control
[5] = Inhibition of recombinant human full-length His6-tagged NTMT1 (1 to 222 residues) expressed in Escherichia coli BL21-CodonPlus(DE3)-RIL competent cells assessed as Me2RCC1 level at 2 uM pre-incubated for 10 mins before RCC1 substrate addition and measured after 15 mins by Western blot analysis relative to control

pIC50 [2]	pIC50 [3]	pIC50 [5]	SMILES	pIC50 [1]	pIC50 [4]
6.05	7.00	7.00	N=C(N)NCCC[C@H](NC(=O)[C@H](CCCNC(=N)N)NC(=O)[C@H](CCCNC(=N)N)NC(=O)[C@H](CCCNC(=N)N)NC(=O)[C@H](CCCNC(=N)N)NC(=O)[C@H](CCCNC(=N)N)NC(=O)[C@H](CCCCN)NC(=O)[C@@H]1CCCN1C(=O)Cc1ccc(O)cc1)C(N)=O (X1-PKRRRRRR-NH2)	6.00	6.10
6.00	7.00	7.00	N=C(N)NCCC[C@H](NC(=O)[C@H](CCCCN)NC(=O)[C@@H]1CCCN1C(=O)Cc1ccc(O)cc1)C(N)=O		

SMILES	pIC50 [2]	pIC50 [3]	pIC50 [5]	pIC50 [1]	pIC50 [4]
N=C(N)NCCC[C@H](NC(=O)[C@H](CCCNC(=N)N)NC(=O)[C@H](CCCNC(=N)N)NC(=O)[C@H](CCC(N)=O)NC(=O)[C@H](CCCNC(=N)N)NC(=O)[C@H](CCCNC(=N)N)NC(=O)[C@H](CCCCN)NC(=O)[C@H](CCCCN)NC(=O)[C@H](CCCNC(=N)N)NC(=O)CNC(=O)[C@H](CCCNC(=N)N)NC(=O)[C@H](CCCCN)NC(=O)[C@@H]1CCCN1C(=O)Cc1ccc(O)cc1)C(N)=O	6.15	6.70		6.00	6.00
